# Measurements from patent publication US20120329749A1, “Methods Of Preventing Or Treating Disease States Related To Certain Metabolic Abnormalities” (priority 2011, published 2012).
# Test system: erectile dysfunction
# Test: Patient-reported erectile dysfunction symptoms
# Description: The patient was placed on a regimen of 5,0 mg L-methylfolate and 2 mg methyl-B12 per day.
# The patient was placed on a regimen of 2.8 mg L-methylfolate and 2 mg methyl-B12 per day.
# The patient was placed on a regimen of 5.0 mg L-methylfolate and 2 mg methyl-B12 per day.
# The patient was placed on a regimen of L-methylfolate, methyl-B12, and pyridoxal-5-phosphate (PSP; active vitamin B6) twice per day.
# The patient was placed on a regimen of L-methylfolate, methyl-B12, and pyridoxal-5-phosphate (P5P; active vitamin B6) twice per day.
smiles,measurement,setting,value
CCCc1nn(C)c2c(=O)[nH]c(-c3cc(S(=O)(=O)N4CCN(C)CC4)ccc3OCC)nc12 [Viagra],effect on erectile dysfunction (patient history),"Patient 20, 50 mg for 2 months",ineffective
same,effect on erectile dysfunction (patient history),"Patient 21, 20 mg for 1 month",ineffective
